{"source": "patent US20260306490A1", "about": "“PIM1 INHIBITOR FOR TREATING MYELOPROLIFERATIVE NEOPLASMS” (Sumitomo Pharma America, Inc., priority 2022, published 2026)", "test_system": "human myeloid progenitors (CFU-GM)", "test": "Colony forming cell assay, human myeloid (granulocyte-monocyte, CFU-GM) progenitor proliferation", "assay_type": "cell-based", "settings": "single agent", "experimental": "Clonogenic progenitors of human erythroid (CFU-E, BFU-E), granulocyte-monocyte (CFU-GM), and multipotential (CFU-GEMM) lineages were assessed in a semi-solid methylcellulose-based media formulation containing rhIL-3 (10 ng/mL), rhGM-SCF (10 ng/mL), rhSCF (50 ng/mL), and Epo (3 U/mL).\nIn addition, 5-FU was evaluated at 1.0, 0.1 and 0.01 μg/mL as a positive control for toxicity.\nNormal human bone marrow light density cells (lot #0210901), derived from normal bone marrow, (Lonza, Maryland) and qualified at ReachBio, were stored at −152° C. until required for the assay. On the day of the experiment, the cells were thawed rapidly, diluted in 10 mL of Iscove's modified Dulbecco's medium containing 10% fetal bovine serum (IMDM+10% FBS) and washed by centrifugation (approximately 1500 r.p.m. for 10 minutes at room temperature). The supernatant was discarded and the cell pellets were resuspended in a known volume of IMDM+10% FBS. A cell count (3% glacial acetic acid) and viability assessment (trypan blue exclusion test) was performed for the bone marrow sample.\nClonogenic progenitors of human megakaryocyte (CFU-Mk) were assessed in a collagen-based media formulation containing rhIL-3 (10 ng/mL), rhIL-6 (10 ng/mL), and Tpo (50 ng/mL). Clonogenic progenitors of the human erythroid (CFU-E and BFU-E), myeloid (CFU-GM), and megakaryocyte (CFU-Mk) lineages were set up in the media formulations described above. Individually, the test compounds were added to the medium to give the final desired concentrations (10, 3.33, 1, 0.333, 0.1, 0.0333, 0.01 and 0.00333 μM). […] Solvent control cultures (containing no compound but 0.1% DMSO) as well as standard controls (containing no compound and no DMSO) were also initiated. Once introduced into the matrices, the tubes were vortexed to ensure an equal distribution throughout.\nHuman myeloid and erythroid progenitor assays were initiated at 1.2×10^4 cells per culture (lot #0210921) and the human megakaryocyte assays were initiated at 1.2×10^5 cells per culture (lot #0210921). Following 14 days in culture, erythroid and myeloid colonies were assessed microscopically in situ and scored by trained personnel. The colonies were divided into the following categories based on size and morphology: CFU-E, BFU-E, CFU-GM, and CFU-GEMM. The human megakaryocyte cultures were transferred from the 35 mm dishes to labeled glass slides, fixed with methanol/acetone fixative, and then stained with anti-human CD41 antibody and an alkaline phosphate detection system according to manufacturers' instructions. The colonies were assessed microscopically and scored by trained personnel and divided into the following categories based on size: CFU-Mk (3-20), CFU-Mk (21-49), and CFU-Mk (≥50).\nStatistical analysis: The mean±standard deviation of three replicate cultures was calculated for both erythroid and myeloid progenitors. Two-tailed standard t-tests were performed to assess if there was a difference in the number of colonies generated between solvent control and treated cultures. Due to the potential subjectivity of colony enumeration, a p value of less than 0.01 is deemed significant. To calculate the concentration of 50% inhibition of colony growth (IC50) for each compound, a dose response curve was generated plotting the log of the compound concentration versus the percentage of control colony growth using GraphPad Prism 9 software.\nErythroid (CFU-E and BFU-E) and myeloid (CFU-GM) colony enumeration was performed by trained personnel. In addition, the distribution of colony types as well as general colony and cellular morphology was analyzed. The variance in colony number detected in replicate cultures was representative of the historical coefficient of variation for colony enumeration using these types of assays. The number and distribution of colonies detected in the solvent control (0.1% DMSO for single agents) was no different from the standard control (containing no compound and no DMSO). […]", "data": [{"smiles": "CC(C)(O)[C@H]1CC[C@H](Nc2ccc3ncc(-c4cccc(C(F)(F)F)c4)n3n2)CC1", "note": "[Compound (1)]", "values": [{"measurement": "IC50", "setting": "Homo sapiens, 336 h, 14 days, CFU-GM", "value": 1.31, "unit": "µM"}, {"measurement": "concentrations at which myeloid progenitor proliferation was (significantly, additionally) inhibited", "setting": "vs 0.1% DMSO solvent control, p<0.01", "value": 1.0, "unit": "µM"}]}]}
